Our source for the EC50 values is patent publication US20060223849A1, “Benzazole derivatives, compositions, and methods of use as beta-secretase inhibitors” (priority 2005, published 2006).

By pEC50 is commonly meant −log10 of the EC50, conventionally taken in molar units.

pEC50: −log10 of the molar value.

The subject of this assay is HEK293 cells stably expressing wildtype human APP695 protein (HEK-APPwt cells). Nature of the assay: Aβ cell based assay (Aβ1-40 secretion, ELISA). The conditions noted are these: 1 hr room temperature then five-hour incubation at 37° C., Aβ1-40 ELISA, DAPT as 100% inhibition reference, read-out: EC50, reduction of Aβ1-40 secretion in the cell based assay. The method, then:
Aβ Cell Based Assay Procedure
In the following assay, the proteolytic activity of BACE in cells exposed to varying concentrations of a compound of interest is measured by observing the amount of Aβ1-40 secreted from HEK293 cells (Human Embryonic Kidney epithelial cell line) stably expressing either wildtype human APP695 protein (HEK-APPwt cells).
HEK-APPwt cells were grown in high glucose DMEM (Dulbecco's Modified Eagles Medium) with 4500 mg glucose/L,L-glutamine, NaHCO3, pyrdoxin HCl, 10 mM HEPES (4-(2-hydroxyethyl)-1-piperazineethanesulfonic acid) (pH 7.4), 0.1 mM NEAA (Non-essential Amino Acids) (GIBCO Cat#11140-050), 10% fetal bovine serum and 250 μg/ml hygromycin in T-225 flasks at 37° C. with CO2 and humidity control.
Test compounds were initially prepared in DMSO and diluted with DMEM media containing 2% FBS (Fetal bovine serum) and 0.05% Tween20. Ten standard compound solutions were prepared having a range of concentrations. The standard compound solutions were used to determine the EC50 of the test compound. The range of concentrations chosen may depend on the compound's predicted potency.
To prepare the cells for the assay, a flask containing HEK-APPwt cells were trypsinized briefly (1 mL trypsin), and once the cells detached, 4 mL of 10% FBS-DMEM was added to the flask. The detached cells were centrifuged at 900 rpm for 5 min to form a pellet.
The HEK-APPwt cell pellet was re-suspended with 10 mL DMEM media containing 2% FBS. 80 μL of the cell suspension was added to each well of a 96-well cell culture plate to give 100,000 cells/well. 10 μL of a standard compound solution was added to each well of the 96-well cell culture plate followed by 10 μL of Alamar blue solution. The cells were incubated at room temperature for 1 hr, followed by a five-hour incubation in the CO2 incubator at 37° C.
At the end of the incubation, the plates were removed from incubator, and the supernatant was collected. Aβ1-40 concentration in the medium was measured by using a commercial Aβ1-40 ELISA kit (IBL, Japan). Briefly, the ELISA plates were coated with anti-human Aβ35-40 mouse IgG monoclonal antibody. A horseradish peroxidase enzyme conjugated anti-human Aβ11-28 mouse IgG monoclone antibody was used for detection. The cell culture supernatant was diluted 1:4 fold with (EIA buffer+Protease inhibitor (buffer containing Protease Inhibitor (1 mL PI/30 mL buffer). A 100 μL aliquot of the diluted supernatant was added to each well of the ELISA plate and incubated for 6 hrs at 4° C. The ELISA plate was washed 8 times with phosphate buffered saline (PBS) containing 0.05% Tween 20.
A 100 μL of detection antibody was then added and incubated for 1 hour at 4° C. The plate was washed 8 times with PBS buffer containing 0.05% Tween 20 followed by addition of 100 μL of the substrate with the chromogen tetramethyl benzidine (TMB). The plate was incubated in the dark at room temperature for about 30 min and a stop solution (1N H2SO4) was added.
The intensity of the color developed was measured at 450 nm. The optical density at 450 nm (OD450) is proportional to the concentration of human Aβ1-40 secreted by the cell. As a reference, N—[N-(3,5-difluorophenacetyl-L-alanyl)]-S-phenylglycine t-butyl ester (DAPT, a γ-secretase inhibitor) was used to indicate 100% inhibition of BACE activity. Thus, the assay measures the ability of a compound of interest to reduce Aβ1-40 secretion. Compound potency was reported as the EC50 by calculating the percent inhibition at all concentration levels and the data were fit with non-linear curve fitting algorithm using in GraphPad Prism.
On the technique in general: ELISA stands for enzyme-linked immunosorbent assay.
With `O=C(Nc1nc2c(C(=O)Nc3ncc[nH]3)cccc2[nH]1)c1cccc(-c2ccco2)n1` [Example 355, Ar = 6-(Furan-2-yl)-pyridine-2-yl], the pEC50 is no less than 5.70.

As to `COc1ccc(CCNC(=O)c2cccc3nc(NC(=O)c4cc5ccccc5cn4)[nH]c23)cc1` [Example 176, Isoquinoline-3-carboxylic acid {7-[2-(4-methoxy-phenyl)-ethylcarbamoyl]-1H-benzoimidazol-2-yl}-amide], the pEC50 was no less than 5.70. In the case of `O=C(Nc1nc2c(C(=O)Nc3nc4c(s3)CNCC4)cccc2[nH]1)c1cc2ccccc2cn1` [Example 198, isoquinoline-3-carboxylic acid [7-(4,5,6,7-tetrahydro-thiazolo[5,4-c]pyridin-2-ylcarbamoyl)-1H-benzoimidazol-2-yl]-amide] it was no less than 5.70; in that of `CN1CCc2nc(NC(=O)c3cccc4[nH]c(NC(=O)c5cc6ccccc6cn5)nc34)sc2C1` [Example 212, Isoquinoline-3-carboxylic acid [4-(5-methyl-4,5,6,7-tetrahydro-thiazolo[5,4-c]pyridin-2-ylcarbamoyl)-1H-benzoimidazol-2-yl]-amide], no less than 5.70; in that of `O=C(Nc1nc2c(C(=O)Nc3ncc[nH]3)cccc2[nH]1)c1cncc(C#Cc2ccccc2)c1` [Example 414, 2-[(5-phenylethynyl-pyridine-3-carbonyl)-amino]-1H-benzoimidazole-4-carboxylic acid (1H-imidazol-2-yl)-amide], no less than 5.70. The figure for `CS(=O)(=O)c1cccc(C#Cc2cccc(C(=O)Nc3nc4c(C(=O)Nc5ncc[nH]5)cccc4[nH]3)n2)c1` [Example 417, 2-{[6-(3-methanesulfonyl-phenylethynyl)-pyridine-2-carbonyl]-amino}-1H-benzoimidazole-4-carboxylic acid (1H-imidazol-2-yl)-amide] is no less than 5.70. The figure for `N#Cc1cccc(-c2cccc(C(=O)Nc3nc4c(C(=O)Nc5ncc[nH]5)cccc4[nH]3)n2)c1` [Example 343, 2-{[6-(3-cyano-phenyl)-pyridine-2-carbonyl]-amino}-1H-benzoimidazole-4-carboxylic acid (1H-imidazol-2-yl)-amide] is no less than 5.70; for `O=C(Nc1nc2cccc(C(=O)Nc3ncc[nH]3)c2[nH]1)c1cc2ccccc2cn1` [Example 58, isoquinoline-3-carboxylic acid [4-(1H-imidazol-2-ylcarbamoyl)-1H-benzoimidazol-2-yl]-amide] it is no less than 5.70; for `CS(=O)(=O)c1ccc(CNC(=O)c2cc(-c3ccncc3)cc3[nH]c(NC(=O)c4cc5ccccc5cn4)nc23)cc1` [Example 458, isoquinoline-3-carboxylic acid [4-(4-methanesulfonyl-benzylcarbamoyl)-6-pyridin-4-yl-1H-benzoimidazol-2-yl]-amide] it is no less than 5.70. Turning to `Cc1nc(C(=O)Nc2nc3c(C(=O)Nc4ncc[nH]4)cccc3[nH]2)cc2ccccc12` [Example 300, 1-methyl-isoquinoline-3-carboxylic acid [4-(1H-imidazol-2-ylcarbamoyl)-1H-benzoimidazol-2-yl]-amide], the pEC50 was no less than 5.70. In the case of `O=C(Nc1nc2c(C(=O)Nc3ncc[nH]3)cccc2[nH]1)c1cccc(C#Cc2ccccc2)n1` [Example 416, 2-[(6-phenylethynyl-pyridine-2-carbonyl)-amino]-1H-benzoimidazole-4-carboxylic acid (1H-imidazol-2-yl)-amide] it was no less than 5.70.

Turning to `COc1cc2cnc(C(=O)Nc3nc4c(C(=O)Nc5ncc[nH]5)cccc4[nH]3)cc2cc1OC` [Example 312, Ar = 6,7-Dimethoxy-isoquinoline-3-yl], the pEC50 was no less than 5.70. In the case of `O=C(Nc1nc2c(C(=O)Nc3ncc[nH]3)cccc2[nH]1)c1cc2cc3c(cc2cn1)OCCO3` [Example 318, Ar = 2,3-Dihydro-[1,4]dioxino[2,3-g]isoquinoline-8-yl] it was no less than 5.70.
